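Results reflect a 48-hour exposure of cells in 96-well plates to compound at five concentrations. Definition used: TGI = concentration required for complete inhibition of growth.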
Experiments:
Experiment in all cases: inhibition of tumour cell growth, NCI panel, 48 h
BT-549 breast = system: BT-549 breast
MALME-3M melanoma = system: MALME-3M melanoma
786-0 renal = system: 786-0 renal
SF-539 CNS = system: SF-539 CNS
KM12 colon = system: KM12 colon
UACC-62 melanoma = system: UACC-62 melanoma
OVCAR-5 ovarian = system: OVCAR-5 ovarian
MDA-MB-435 = system: MDA-MB-435
M14 melanoma = system: M14 melanoma
SR leukemia = system: SR leukemia
CCRF-CEM leukemia = system: CCRF-CEM leukemia
SNB-19 CNS = system: SNB-19 CNS
A549 NSCLC = system: A549 NSCLC
MDA-N = system: MDA-N
OVCAR-4 ovarian = system: OVCAR-4 ovarian
HCC-2998 colon = system: HCC-2998 colon
SK-MEL-5 melanoma = system: SK-MEL-5 melanoma
COLO 205 colon = system: COLO 205 colon
SK-OV-3 ovarian = system: SK-OV-3 ovarian
NCI-H460 lung = system: NCI-H460 lung
MOLT-4 leukemia = system: MOLT-4 leukemia
K-562 leukemia = system: K-562 leukemia
T-47D breast = system: T-47D breast
HCT-116 colon = system: HCT-116 colon
HS 578T breast = system: HS 578T breast
NCI-H522 lung = system: NCI-H522 lung
ACHN renal = system: ACHN renal
SK-MEL-2 melanoma = system: SK-MEL-2 melanoma
SW-620 colon = system: SW-620 colon
SF-268 CNS = system: SF-268 CNS
U251 CNS = system: U251 CNS
HL-60(TB) leukemia = system: HL-60(TB) leukemia
A498 renal = system: A498 renal
IGROV1 ovarian = system: IGROV1 ovarian
TK-10 renal = system: TK-10 renal
UACC-257 melanoma = system: UACC-257 melanoma
OVCAR-8 ovarian = system: OVCAR-8 ovarian
EKVX NSCLC = system: EKVX NSCLC
CAKI-1 renal = system: CAKI-1 renal
SNB-75 CNS = system: SNB-75 CNS
SN12C renal = system: SN12C renal
SF-295 CNS = system: SF-295 CNS
NCI/ADR-RES ovarian = system: NCI/ADR-RES ovarian
OVCAR-3 ovarian = system: OVCAR-3 ovarian
LOX IMVI melanoma = system: LOX IMVI melanoma
PC-3 prostate = system: PC-3 prostate
SK-MEL-28 melanoma = system: SK-MEL-28 melanoma
HOP-62 NSCLC = system: HOP-62 NSCLC
HCT-15 colon = system: HCT-15 colon
MDA-MB-231 breast = system: MDA-MB-231 breast
RPMI-8226 leukemia = system: RPMI-8226 leukemia
NCI-H226 lung = system: NCI-H226 lung
UO-31 renal = system: UO-31 renal
NCI-H23 lung = system: NCI-H23 lung
HT29 colon = system: HT29 colon
DU-145 prostate = system: DU-145 prostate
HOP-92 NSCLC = system: HOP-92 NSCLC
RXF 393 renal = system: RXF 393 renal
MCF7 breast = system: MCF7 breast

Measured: TGI

COc1ccc2c(c1)C(=O)C1CCC(=O)N1C2c1ccc2c(c1)OCO2 (stereo not drawn)
29 µM: M14 melanoma
42.4 µM: HL-60(TB) leukemia
29.6 µM: HCT-15 colon
31.5 µM: U251 CNS
78.2 µM: 786-0 renal
48.5 µM: T-47D breast
54.6 µM: MDA-MB-231 breast
23.7 µM: SW-620 colon
40.4 µM: UACC-257 melanoma
15.9 µM: MALME-3M melanoma
42.8 µM: HOP-62 NSCLC
86.1 µM: TK-10 renal
53.3 µM: SF-268 CNS
88.1 µM: HS 578T breast
32.5 µM: IGROV1 ovarian
14.9 µM: HCT-116 colon
24.9 µM: SK-MEL-5 melanoma
24.4 µM: MDA-MB-435 | SN12C renal | SK-MEL-28 melanoma
44.2 µM: OVCAR-8 ovarian
33.4 µM: DU-145 prostate
16.9 µM: HT29 colon
63.1 µM: SK-OV-3 ovarian
26.7 µM: SNB-19 CNS
41.6 µM: SK-MEL-2 melanoma
22.2 µM: KM12 colon
11.6 µM: BT-549 breast
42.7 µM: SF-539 CNS
38.3 µM: ACHN renal
71.8 µM: CAKI-1 renal
21.6 µM: NCI-H522 lung
38.1 µM: A498 renal
25.7 µM: COLO 205 colon
40.2 µM: EKVX NSCLC
30.3 µM: NCI-H226 lung
29.5 µM: PC-3 prostate
64.4 µM: NCI-H460 lung
35.1 µM: LOX IMVI melanoma
29.9 µM: UACC-62 melanoma
22.4 µM: UO-31 renal
39.8 µM: K-562 leukemia | NCI-H23 lung
12.9 µM: RPMI-8226 leukemia
15.3 µM: OVCAR-3 ovarian
28 µM: HCC-2998 colon
13.3 µM: CCRF-CEM leukemia
47.9 µM: OVCAR-4 ovarian
51.5 µM: A549 NSCLC
28.1 µM: OVCAR-5 ovarian
36.3 µM: SF-295 CNS
36.5 µM: SNB-75 CNS
> 100 µM: SR leukemia | MDA-N | NCI/ADR-RES ovarian
11.2 µM: MOLT-4 leukemia

CCOC(=O)Cc1csc(N=Nc2c(O)[nH]c3ccccc23)n1
69.9 µM: SK-MEL-5 melanoma
96.6 µM: SNB-75 CNS
83.3 µM: CCRF-CEM leukemia
50.7 µM: HL-60(TB) leukemia
73.1 µM: MOLT-4 leukemia
93.5 µM: NCI-H522 lung
not listed: MALME-3M melanoma | SR leukemia | SK-MEL-28 melanoma
> 100 µM: all other assays above

C/C=C(/C)c1cnc(CC(C)C)c(=O)[nH]1
not listed: MALME-3M melanoma | SF-539 CNS | M14 melanoma | NCI-H522 lung | HL-60(TB) leukemia | NCI/ADR-RES ovarian | NCI-H226 lung | MCF7 breast
> 100 µM: all other assays above

Cn1c2ccc(C3=NCCN3)cc2c2cc(C3=NCCN3)ccc21
0.0344 µM: CCRF-CEM leukemia
63.7 µM: HOP-92 NSCLC
61 µM: MALME-3M melanoma
25.9 µM: NCI-H460 lung
not listed: UACC-62 melanoma | HCC-2998 colon | HL-60(TB) leukemia | MCF7 breast
> 100 µM: all other assays above
